Experimental data from patent publication US20060069132A1, “Azolecarboxamide herbicides” (priority 2004, published 2006).
Like-named read-outs stand apart in the source and are kept apart here.

Experiments:
[1] = tested on: velvetleaf; assay: Test C pre-/postemergence herbicide test; type: in vivo, Abutilon theophrasti
Method in brief: (§1)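 Pre/post spray; non-phytotoxic solvent + surfactant. Post-timing 1–4 leaves, 2–18 cm. Read-out: visual % control vs untreated, day 12–14, greenhouse.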

[2] = tested on: yellow nutsedge; assay: Test C pre-/postemergence herbicide test; type: in vivo, Cyperus esculentus
Method in brief: as §1

[3] = tested on: redroot pigweed; assay: Test A pre-/postemergence herbicide test; type: in vivo, Amaranthus retroflexus; settings: Amaranthus retroflexus, 240 h; for pest or weed control at 500 g/ha: 500 g ai/ha; for pest or weed control at 2000 g/ha: 2000 g ai/ha
Method in brief: (§2)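 Greenhouse injury scoring (0–100, complete control = 100) at approximately ten days follows simultaneous pre- and postemergence application. Soil received a directed spray after seeding; seedlings of 2–10 cm at the one- to two-leaf stage were sprayed to runoff.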

[4] = tested on: soybean; assay: Test C pre-/postemergence herbicide test; type: in vivo, Glycine max
Method in brief: as §1

[5] = tested on: kochia; assay: Test C pre-/postemergence herbicide test; type: in vivo, Kochia scoparia
Method in brief: as §1

[6] = tested on: woolly cupgrass; assay: Test C pre-/postemergence herbicide test; type: in vivo, Eriochloa villosa
Method in brief: as §1

[7] = tested on: cocklebur; assay: Test C pre-/postemergence herbicide test; type: in vivo, Xanthium strumarium
Method in brief: as §1

[8] = tested on: bermudagrass; assay: Test C pre-/postemergence herbicide test; type: in vivo, Cynodon dactylon
Method in brief: as §1

[9] = tested on: goosegrass; assay: Test C pre-/postemergence herbicide test; type: in vivo, Eleusine indica
Method in brief: as §1

[10] = tested on: barnyardgrass; assay: Test C flooded paddy test; type: in vivo, Echinochloa crus-galli; settings: Echinochloa crus-galli
Method in brief: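 Postemergence sprays applied to plants 2 to 18 cm tall (1- to 4-leaf stage); paddy species grown to 2-leaf stage under flooding. After 12 to 14 days in greenhouse, visual rating versus untreated controls on 0–100 scale (0 no effect, 100 complete control).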

[11] = tested on: velvetleaf; assay: Test A pre-/postemergence herbicide test; type: in vivo, Abutilon theophrasti; settings: Abutilon theophrasti, 240 h; for pest or weed control at 2000 g/ha: 2000 g ai/ha, 0 to 100 scale, 0 no effect, 100 complete control
Method in brief: as §2

[12] = tested on: morningglory; assay: Test C pre-/postemergence herbicide test; type: in vivo, Ipomoea coccinea
Method in brief: as §1

[13] = tested on: corn; assay: Test C pre-/postemergence herbicide test; type: in vivo, Zea mays
Method in brief: as §1

[14] = tested on: giant foxtail; assay: Test C pre-/postemergence herbicide test; type: in vivo, Setaria faberi
Method in brief: as §1

[15] = Preemergence, 500 g ai/ha, scale 0 to 100, 0 no effect, 100 complete control
[16] = post-emergence, Postemergence, 0 to 100 scale, 0 no effect, 100 complete control, read-out: Plant response rating, Pigweed

Question: With `CCn1nc(C(C)(C)C)cc1C(=O)Nc1cccc2c1CN(C)C2=O` [Compound 55, N-(2,3-dihydro-2-methyl-1-oxo-1H-isoindol-4-yl)-3-(1,1-dimethylethyl)-1-ethyl-1H-pyrazole-5-carboxamide] as the compound, how does the “Plant response rating (0 = no effect, 100 = complete control), Velvetleaf” value ([1]; 62 g ai/ha, preemergence) read?
Answer: 0

Question: What about the pest or weed control at 125 g/ha ([1]; Abutilon theophrasti, pre-emergence, 125 g ai/ha, scale 0 (no effect) to 100 (complete control), visual, 12 to 14 days, read-out: Plant response rating, Velvetleaf) of the same compound?
Answer: 0%

Question: What about the pest or weed control at 250 g/ha ([1]; Abutilon theophrasti, pre-emergence, 250 g ai/ha, scale 0 to 100 (0 no effect, 100 complete control), visual, 12 to 14 days, read-out: Plant response rating, Velvetleaf) of the same compound?
Answer: 15%

Question: And the “Velvetleaf plant response rating” value [1, 15]?
Answer: 100

Question: What about the “Plant response rating (0 = no effect, 100 = complete control), Nutsedge, Yellow” value ([2]; 62 g ai/ha, preemergence) of the same compound?
Answer: 0

Question: And the pest or weed control at 125 g/ha ([2]; Cyperus, pre-emergence, 125 g ai/ha, scale 0 (no effect) to 100 (complete control), visual, 12 to 14 days, read-out: Plant response rating, Nutsedge, Yellow)?
Answer: 0%

Question: What about the pest or weed control at 250 g/ha ([2]; Cyperus, pre-emergence, 250 g ai/ha, scale 0 to 100 (0 no effect, 100 complete control), visual, 12 to 14 days, read-out: Plant response rating, Nutsedge, Yellow) of the same compound?
Answer: 0%

Question: And the “Nutsedge, Yellow plant response rating” value [2, 15]?
Answer: 10

Question: What about the pest or weed control at 500 g/ha [3, 16] of the same compound?
Answer: 90%

Question: What about the pest or weed control at 2000 g/ha [3, 16] of the same compound?
Answer: 100%

Question: What about the pest or weed control at 500 g/ha ([3]; pre-emergence, Preemergence, visual rating, 0 to 100 scale (0 no effect, 100 complete control), read-out: Pigweed plant response rating) of the same compound?
Answer: 100%

Question: And the pest or weed control at 2000 g/ha ([3]; pre-emergence, Preemergence, 0 to 100 scale, 0 no effect, 100 complete control, read-out: Pigweed plant response rating)?
Answer: 100%

Question: What about the “Plant response rating (0 = no effect, 100 = complete control), Soybean” value ([4]; 62 g ai/ha, preemergence) of the same compound?
Answer: 0

Question: And the plant injury at 125 g/ha ([4]; Glycine max, pre-emergence, 125 g ai/ha, scale 0 (no effect) to 100 (complete control), visual, 12 to 14 days, read-out: Plant response rating, Soybean)?
Answer: 0%

Question: And the plant injury at 250 g/ha ([4]; Glycine max, pre-emergence, 250 g ai/ha, scale 0 to 100 (0 no effect, 100 complete control), visual, 12 to 14 days, read-out: Plant response rating, Soybean)?
Answer: 0%

Question: And the “Soybean plant response rating” value [4, 15]?
Answer: 20

Question: What about the “Plant response rating (0 = no effect, 100 = complete control), Kochia” value ([5]; 62 g ai/ha, preemergence) of the same compound?
Answer: 25

Question: What about the pest or weed control at 125 g/ha ([5]; Bassia scoparia, pre-emergence, 125 g ai/ha, scale 0 (no effect) to 100 (complete control), visual, 12 to 14 days, read-out: Plant response rating, Kochia) of the same compound?
Answer: 80%

Question: And the pest or weed control at 250 g/ha ([5]; Bassia scoparia, pre-emergence, 250 g ai/ha, scale 0 to 100 (0 no effect, 100 complete control), visual, 12 to 14 days, read-out: Plant response rating, Kochia)?
Answer: 100%

Question: What about the “Kochia plant response rating” value [5, 15] of the same compound?
Answer: 100

Question: And the “Plant response rating (0 = no effect, 100 = complete control), Cupgrass, Woolly” value ([6]; 62 g ai/ha, preemergence)?
Answer: 0

Question: What about the pest or weed control at 125 g/ha ([6]; Eriochloa villosa, pre-emergence, 312 h, 125 g ai/ha, scale 0 (no effect) to 100 (complete control), visual, 12 to 14 days, read-out: Plant response rating, Cupgrass, Woolly) of the same compound?
Answer: 25%

Question: What about the pest or weed control at 250 g/ha ([6]; Eriochloa villosa, pre-emergence, 312 h, 250 g ai/ha, scale 0 to 100 (0 no effect, 100 complete control), visual, 12 to 14 days, read-out: Plant response rating, Cupgrass, Woolly) of the same compound?
Answer: 55%

Question: And the “Cupgrass, Woolly plant response rating” value [6, 15]?
Answer: 65

Question: And the “Plant response rating (0 = no effect, 100 = complete control), Cocklebur” value ([7]; 62 g ai/ha, preemergence)?
Answer: 0

Question: What about the pest or weed control at 125 g/ha ([7]; Xanthium strumarium, pre-emergence, 312 h, 125 g ai/ha, scale 0 (no effect) to 100 (complete control), visual, 12 to 14 days, read-out: Plant response rating, Cocklebur) of the same compound?
Answer: 0%

Question: What about the pest or weed control at 250 g/ha ([7]; Xanthium strumarium, pre-emergence, 312 h, 250 g ai/ha, scale 0 to 100 (0 no effect, 100 complete control), visual, 12 to 14 days, read-out: Plant response rating, Cocklebur) of the same compound?
Answer: 0%

Question: What about the pest or weed control at 500 g/ha ([7]; Xanthium strumarium, pre-emergence, 312 h, Preemergence, 500 g ai/ha, scale 0 to 100, 0 no effect, 100 complete control, read-out: Cocklebur plant response rating) of the same compound?
Answer: 0%

Question: And the “Plant response rating (0 = no effect, 100 = complete control), Bermudagrass” value ([8]; 62 g ai/ha, preemergence)?
Answer: 60

Question: What about the pest or weed control at 125 g/ha ([8]; Cynodon dactylon, pre-emergence, 312 h, 125 g ai/ha, scale 0 (no effect) to 100 (complete control), visual, 12 to 14 days, read-out: Plant response rating, Bermudagrass) of the same compound?
Answer: 100%

Question: And the pest or weed control at 250 g/ha ([8]; Cynodon dactylon, pre-emergence, 312 h, 250 g ai/ha, scale 0 to 100 (0 no effect, 100 complete control), visual, 12 to 14 days, read-out: Plant response rating, Bermudagrass)?
Answer: 100%

Question: What about the pest or weed control at 500 g/ha ([8]; Cynodon dactylon, pre-emergence, 312 h, Preemergence, 500 g ai/ha, scale 0 to 100, 0 no effect, 100 complete control, read-out: Bermudagrass plant response rating) of the same compound?
Answer: 100%

Question: What about the “Plant response rating (0 = no effect, 100 = complete control), Goosegrass” value ([9]; 62 g ai/ha, preemergence) of the same compound?
Answer: 0

Question: And the pest or weed control at 125 g/ha ([9]; Eleusine indica, pre-emergence, 312 h, 125 g ai/ha, scale 0 (no effect) to 100 (complete control), visual, 12 to 14 days, read-out: Plant response rating, Goosegrass)?
Answer: 50%

Question: And the pest or weed control at 250 g/ha ([9]; Eleusine indica, pre-emergence, 312 h, 250 g ai/ha, scale 0 to 100 (0 no effect, 100 complete control), visual, 12 to 14 days, read-out: Plant response rating, Goosegrass)?
Answer: 75%

Question: What about the “Goosegrass plant response rating” value [9, 15] of the same compound?
Answer: 95

Question: And the pest or weed control at 62 g/ha ([10]; 62 g ai/ha, scale 0 to 100 (0 no effect, 100 complete control), read-out: Barnyardgrass plant response rating)?
Answer: 0%

Question: What about the pest or weed control at 125 g/ha ([10]; 125 g ai/ha, scale of 0 to 100, 0 is no effect, 100 is complete control, read-out: Barnyardgrass plant response rating) of the same compound?
Answer: 0%

Question: And the pest or weed control at 250 g/ha ([10]; 250 g ai/ha, scale of 0 to 100, 0 is no effect, 100 is complete control, read-out: Barnyardgrass plant response rating)?
Answer: 25%

Question: What about the pest or weed control at 500 g/ha ([10]; 500 g ai/ha, visual rating after 12 to 14 days, scale 0 to 100 (0 no effect, 100 complete control), read-out: Plant response rating, Barnyardgrass) of the same compound?
Answer: 75%

Question: What about the pest or weed control at 2000 g/ha ([11]; post-emergence, Postemergence, read-out: Plant response rating, Velvetleaf) of the same compound?
Answer: 40%

Question: What about the pest or weed control at 500 g/ha ([11]; pre-emergence, Preemergence, 500 g ai/ha, visual rating, 0 to 100 scale (0 no effect, 100 complete control), read-out: Velvetleaf plant response rating) of the same compound?
Answer: 20%

Question: What about the pest or weed control at 2000 g/ha ([11]; pre-emergence, Preemergence, read-out: Velvetleaf plant response rating) of the same compound?
Answer: 70%

Question: And the “Plant response rating (0 = no effect, 100 = complete control), Morningglory” value ([12]; 62 g ai/ha, preemergence)?
Answer: 0

Question: And the pest or weed control at 125 g/ha ([12]; Ipomoea, pre-emergence, 125 g ai/ha, scale 0 (no effect) to 100 (complete control), visual, 12 to 14 days, read-out: Plant response rating, Morningglory)?
Answer: 0%

Question: What about the pest or weed control at 250 g/ha ([12]; Ipomoea, pre-emergence, 250 g ai/ha, scale 0 to 100 (0 no effect, 100 complete control), visual, 12 to 14 days, read-out: Plant response rating, Morningglory) of the same compound?
Answer: 20%

Question: And the “Morningglory plant response rating” value [12, 15]?
Answer: 75

Question: What about the “Plant response rating (0 = no effect, 100 = complete control), Corn” value ([13]; 62 g ai/ha, preemergence) of the same compound?
Answer: 0

Question: What about the “Corn plant response rating” value [13, 15] of the same compound?
Answer: 0

Question: What about the Corn plant response rating (crop injury, 0 = no effect, 100 = complete kill) at 125 g/ha ([13]; Zea mays, pre-emergence, 312 h, 125 g ai/ha, scale 0 (no effect) to 100 (complete control), visual, 12 to 14 days) of the same compound?
Answer: 0%

Question: What about the Corn plant response rating (crop injury, 0 = no effect, 100 = complete kill) at 250 g/ha ([13]; Zea mays, pre-emergence, 312 h, 250 g ai/ha, scale 0 to 100 (0 no effect, 100 complete control), visual, 12 to 14 days) of the same compound?
Answer: 0%

Question: And the “Plant response rating (0 = no effect, 100 = complete control), Foxtail, Giant” value ([14]; 62 g ai/ha, preemergence)?
Answer: 0

Question: What about the “Foxtail, Giant plant response rating” value [14, 15] of the same compound?
Answer: 100

Question: What about the pest or weed control at 125 g/ha ([14]; Setaria faberi, pre-emergence, 312 h, 125 g ai/ha, scale 0 (no effect) to 100 (complete control), visual, 12 to 14 days, read-out: Plant response rating, Foxtail, Giant) of the same compound?
Answer: 50%

Question: What about the pest or weed control at 250 g/ha ([14]; Setaria faberi, pre-emergence, 312 h, 250 g ai/ha, scale 0 to 100 (0 no effect, 100 complete control), visual, 12 to 14 days, read-out: Plant response rating, Foxtail, Giant) of the same compound?
Answer: 75%
